Values of other authors, collected in patent US20180280392A1, “PHARMACEUTICAL PREPARATION COMPRISING CYCLIN INHIBITOR AND PREPARATION METHOD THEREOF” (Jiangsu Hansoh Pharmaceutical Group Co., Ltd., priority 2014, published 2018).
Read-outs that look alike come from different tables or passages of the source.

System: phosphorylation of retinoblastoma tumor suppressor (RB) in MDA-MB-435 breast cancer cells

IC50 (Ser780 site, read-out: IC50, reduction of phosphorylation of RB on Ser780): 66 nM | IC50 (Ser795 site, read-out: IC50, reduction of phosphorylation of RB on Ser795): 63 nM
Compound: CC(=O)c1c(C)c2cnc(Nc3ccc(N4CCNCC4)cn3)nc2n(C2CCCC2)c1=O [compound of formula I, 6-acetyl-8-cyclopentyl-5-methyl-2-(5-piperazin-1-yl-pyridin-2-yl-amino)-8H-pyrido[2,3-d]pyrimidin-7-one]
